A word on the inhibition: it is how much of the control response was suppressed. A word on the IC50: it is the concentration that gives 50% inhibition. Read a high IC50 as a need for much substance.

From ChEMBL document CHEMBL2021783, “Inhibition of cholinesterase activity and amyloid aggregation by berberine-phenyl-benzoheterocyclic and tacrine-phenyl-benzoheterocyclic hybrids” (Bioorg Med Chem, 2012) come the findings set out here.

Active and inactive are the calls of the source. The rule behind the calls is not given here.

The nature of test [1]: Inhibition of amyloid beta (1 to 42) self aggregation at 20 uM after 48 hrs by thioflavin T fluorescence assay.
The target in another test is Acetylcholinesterase (Electrophorus electricus, UniProt O42275).
Another test has as its target Cholinesterase (Equus caballus, UniProt P81908).
The target of test [2] is Acetylcholinesterase (Electrophorus electricus) (UniProt O42275). Description: Mixed-type inhibition of electric eel AChE using acetylcholine as substrate after 15 mins by Lineweaver-Burk plot analysis.
For test [3] the target is unchanged. Nature of the test: Ratio of IC50 for tarcine to compound for electric eel AChE using acetylcholine as substrate by Ellman's method. For orientation: In Ellman's method for cholinesterases, released thiocholine reacts with DTNB.

Chain of Cholinesterase (P81908 whole entry): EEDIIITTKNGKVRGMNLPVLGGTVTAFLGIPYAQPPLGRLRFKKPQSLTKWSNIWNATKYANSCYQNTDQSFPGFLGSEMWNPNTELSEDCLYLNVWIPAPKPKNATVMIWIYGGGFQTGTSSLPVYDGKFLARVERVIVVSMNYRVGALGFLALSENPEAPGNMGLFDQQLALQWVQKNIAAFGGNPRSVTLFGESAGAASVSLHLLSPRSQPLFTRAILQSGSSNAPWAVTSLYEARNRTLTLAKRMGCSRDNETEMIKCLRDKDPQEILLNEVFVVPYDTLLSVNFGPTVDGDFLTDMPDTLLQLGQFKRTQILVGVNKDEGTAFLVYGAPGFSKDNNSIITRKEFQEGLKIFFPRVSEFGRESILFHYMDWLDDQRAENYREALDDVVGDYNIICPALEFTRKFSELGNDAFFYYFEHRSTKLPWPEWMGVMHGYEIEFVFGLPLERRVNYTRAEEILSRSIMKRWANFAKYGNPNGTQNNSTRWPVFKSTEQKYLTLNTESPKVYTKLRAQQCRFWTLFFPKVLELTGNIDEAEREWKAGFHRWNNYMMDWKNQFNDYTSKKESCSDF
Chain of Acetylcholinesterase (O42275 whole entry): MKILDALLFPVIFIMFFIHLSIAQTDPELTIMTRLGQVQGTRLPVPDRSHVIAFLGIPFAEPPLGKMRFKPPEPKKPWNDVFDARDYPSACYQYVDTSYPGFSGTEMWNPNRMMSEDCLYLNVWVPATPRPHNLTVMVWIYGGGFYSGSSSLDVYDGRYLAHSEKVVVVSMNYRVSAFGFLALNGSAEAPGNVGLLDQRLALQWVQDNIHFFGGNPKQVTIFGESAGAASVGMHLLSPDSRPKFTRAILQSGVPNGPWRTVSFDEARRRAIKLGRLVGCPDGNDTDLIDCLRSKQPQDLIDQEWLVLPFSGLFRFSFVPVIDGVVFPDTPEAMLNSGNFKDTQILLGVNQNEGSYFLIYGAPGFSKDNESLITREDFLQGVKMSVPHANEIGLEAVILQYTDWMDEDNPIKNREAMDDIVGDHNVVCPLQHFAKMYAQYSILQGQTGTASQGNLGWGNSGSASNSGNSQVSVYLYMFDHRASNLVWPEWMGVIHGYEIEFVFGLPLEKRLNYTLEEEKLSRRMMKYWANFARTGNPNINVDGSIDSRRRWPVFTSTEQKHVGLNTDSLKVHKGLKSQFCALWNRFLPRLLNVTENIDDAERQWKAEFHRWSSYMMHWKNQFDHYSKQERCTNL
Chain of Acetylcholinesterase (Electrophorus electricus) (O42275 24-633 limits assumed): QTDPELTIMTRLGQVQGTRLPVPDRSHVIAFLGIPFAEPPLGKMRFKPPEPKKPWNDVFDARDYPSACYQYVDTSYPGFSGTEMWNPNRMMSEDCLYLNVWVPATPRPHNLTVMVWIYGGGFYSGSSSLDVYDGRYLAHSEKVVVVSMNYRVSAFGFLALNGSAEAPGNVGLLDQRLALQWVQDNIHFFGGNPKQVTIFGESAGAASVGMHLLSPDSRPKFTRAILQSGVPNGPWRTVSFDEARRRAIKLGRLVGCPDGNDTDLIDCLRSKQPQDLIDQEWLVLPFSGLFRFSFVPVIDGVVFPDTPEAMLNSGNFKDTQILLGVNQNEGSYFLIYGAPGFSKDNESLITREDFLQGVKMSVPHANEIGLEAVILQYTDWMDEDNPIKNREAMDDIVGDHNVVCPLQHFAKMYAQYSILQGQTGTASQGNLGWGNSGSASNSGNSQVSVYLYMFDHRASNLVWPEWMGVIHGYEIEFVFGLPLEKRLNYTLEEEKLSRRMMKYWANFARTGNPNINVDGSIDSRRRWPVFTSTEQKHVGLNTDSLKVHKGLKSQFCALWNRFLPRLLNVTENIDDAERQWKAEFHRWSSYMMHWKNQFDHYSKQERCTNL

Take `COc1ccc2cc3[n+](cc2c1OCCCNC(=O)c1cc2ccccc2[nH]1)CCc1cc2c(cc1-3)OCO2`: the inhibition in test [1] came out at 73.5%. Also, the IC50 against Acetylcholinesterase is 976 nM; at Cholinesterase, 2190 nM.

Molecule `COc1ccc2cc3[n+](cc2c1OCCCNC(=O)c1cc2ccccc2o1)CCc1cc2c(cc1-3)OCO2` yielded an inhibition in test [1] of 69.1%. The values for the IC50 at Acetylcholinesterase and against Cholinesterase were 1940 nM and 1540 nM, respectively.

`COc1ccc2cc3[n+](cc2c1OCCCOc1ccc(-c2cc4ccccc4o2)cc1)CCc1cc2c(cc1-3)OCO2` displayed an inhibition in test [1] of 84.6%. Further, the results for the IC50 against Acetylcholinesterase and against Cholinesterase were 1920 nM and 990 nM, respectively.

For `c1ccc2oc(-c3ccc(OCCCCNc4c5c(nc6ccccc46)CCCC5)cc3)cc2c1`, the inhibition in test [1] stood at 46.3%. Also, the IC50 against Acetylcholinesterase is 201 nM; on Cholinesterase, 238 nM.

`c1ccc2oc(-c3ccc(OCCCCNc4c5c(nc6ccccc46)CCCC5)cc3)nc2c1` came in with an inhibition in test [1] of 33.2%. Moreover, the IC50 at Acetylcholinesterase worked out at 947 nM; against Cholinesterase it was 207 nM.

On to `c1ccc2sc(-c3ccc(OCCCNc4c5c(nc6ccccc46)CCCC5)cc3)nc2c1`, for which the inhibition in test [1] stood at 51.8%. Moreover, the inhibition entry in test [2] is “Active”. In test [3], the Ratio IC50 was 18. Moreover, the IC50 came out at 17 nM at Acetylcholinesterase and 122 nM against Cholinesterase.

In test [1], `c1ccc2oc(-c3ccc(OCCCNc4c5c(nc6ccccc46)CCCC5)cc3)nc2c1` displayed an inhibition of 57.6%. Further, the values for the IC50 against Acetylcholinesterase and on Cholinesterase were 475 nM and 352 nM, respectively.

`c1ccc2sc(-c3ccc(OCCCCCNc4c5c(nc6ccccc46)CCCC5)cc3)nc2c1` showed an inhibition in test [1] of 40.7%. In addition, the IC50 is 40 nM at Acetylcholinesterase and 171 nM against Cholinesterase.

Molecule `COc1ccc2cc3[n+](cc2c1OCCOc1ccc(-c2nc4ccccc4o2)cc1)CCc1cc2c(cc1-3)OCO2` gave an IC50 on Acetylcholinesterase of 3300 nM.

Take `COc1ccc2cc3[n+](cc2c1OCCOc1ccc(-c2cc4ccccc4o2)cc1)CCc1cc2c(cc1-3)OCO2`: at Acetylcholinesterase, the IC50 was 3590 nM.

In test [1], `c1ccc2oc(-c3ccc(OCCCNc4c5c(nc6ccccc46)CCCC5)cc3)cc2c1` had an inhibition of 62.8%. Moreover, the figures for the IC50 on Acetylcholinesterase and against Cholinesterase were 58 nM and 156 nM, respectively.

Molecule `c1ccc2sc(-c3ccc(OCCCCCCNc4c5c(nc6ccccc46)CCCC5)cc3)nc2c1` gave an inhibition in test [1] of 41.9%. Also, the IC50 came to 93 nM on Acetylcholinesterase and 82 nM against Cholinesterase.

Turning to `COc1ccc2cc3[n+](cc2c1OCCCOc1ccc(-c2cc4ccccc4[nH]2)cc1)CCc1cc2c(cc1-3)OCO2`, the IC50 on Acetylcholinesterase is 774 nM; against Cholinesterase it was 711 nM.

Molecule `c1ccc2sc(-c3ccc(OCCCCNc4c5c(nc6ccccc46)CCCC5)cc3)nc2c1` gave an inhibition in test [1] of 37.8%. In addition, the concentration for half-maximal inhibition (IC50) against Acetylcholinesterase was found to be 105 nM; against Cholinesterase it was 186 nM.

`COc1ccc2cc3[n+](cc2c1OCCOc1ccc(-c2cc4ccccc4[nH]2)cc1)CCc1cc2c(cc1-3)OCO2` had an IC50 against Acetylcholinesterase of 1070 nM. This counts as single-digit micromolar.

For `COc1ccc2cc3[n+](cc2c1OC)CCc1cc2c(cc1-3)OCO2`, in test [1], the inhibition stood at 36.3%.

With `COc1ccc2cc3[n+](cc2c1OCCCOc1ccc(-c2nc4ccccc4s2)cc1)CCc1cc2c(cc1-3)OCO2`, the inhibition in test [1] turned out to be 79.2%. The IC50 amounted to 1480 nM against Acetylcholinesterase and 587 nM on Cholinesterase.

For `COc1ccc2cc3[n+](cc2c1OCCOc1ccc(-c2nc4ccccc4s2)cc1)CCc1cc2c(cc1-3)OCO2`, the IC50 on Acetylcholinesterase was determined as 1640 nM; at Cholinesterase, 175 nM.

With `COc1ccc2cc3[n+](cc2c1OCCCOc1ccc(-c2nc4ccccc4o2)cc1)CCc1cc2c(cc1-3)OCO2`, the results for the IC50 at Acetylcholinesterase and at Cholinesterase were 2120 nM and 639 nM, respectively.
